Reference: patent US7312221B2, “Inhibitors of macrophage migration inhibitory factor and methods for identifying the same” (Avanir Pharmaceuticals, priority 2003, dated 2007)
Where “and” joins values, the source holds several entries; their conditions need not be identical. Identical values can stand only once. Like-named read-outs stand apart in the source and are kept apart here. Values belong to the compound of their own block, whether it stands above or below them.

Tests used:
[1] = biological target: T1, MIF (Homo sapiens, UniProt P14174); assay: Tautomerase assay (in vitro tautomerase inhibitory activity); assay type: biochemical; conditions: for MIF inhibitory activity, comparison of Compound 200 and Compound 203: in vitro activity, comparison of Table 2 (tautomerase; THP-1/MIF for 200 only); for in vitro tautomerase inhibitory activity: several different concentrations, FIG. 2 / FIG. 3
T1 sequence (P14174 2-115 limits assumed): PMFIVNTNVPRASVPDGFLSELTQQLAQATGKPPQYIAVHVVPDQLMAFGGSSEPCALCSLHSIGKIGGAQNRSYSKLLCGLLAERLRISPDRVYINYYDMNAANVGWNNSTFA
From the text: An alternative in vitro assay is designed to measure the ability of MIF to catalyze tautomerization of the D-isomer of dopachrome (see Rosengren et al., Mol. Med. 2:143-149, 1996; Winder et al., J. Cell Sci. 106:153-166, 1993; Aroca et al., Biochem. J. 277:393-397). Briefly, in this method, D-dopachrome is provided to MIF in the presence and absence of a candidate inhibitor and the ability to catalyze the tautomerization to 5,6-dihydroxyindole-2-carboxylic acid (DHICA) is monitored. However, use of methyl esters of D-dopachrome may be preferred in that a faster reaction rate is observed. Detection of the tautomerization can be performed by any one of a variety of standard methods.
In a similar assay, the ability of MIF to catalyze the tautomerization of phenylpyruvate may be tested (see Johnson et al., Biochem. 38(48):16024-16033, 1999). Briefly, in this method, typically ketonization of phenylpyruvate or (p-hydroxyphenyl)pyruvate is followed by spectroscopy. Further, product formation may be verified by treatment of these compounds with MIF and subsequent conversion to malate for ^1H NMR analysis.
The tautomerization reaction is carried out essentially as described by Rosengren et al., Mol. Med 2(1):143-149, 1996. D-dopachrome conversion to 5,6-dihydroxyindole-2-carboxylic acid is assessed. 1 ml sample cuvettes containing 0.42 mM substrate and 1.4 μg of MIF in a sample solution containing 0.1 mM EDTA and 10 mM sodium phosphate buffer, pH 6.0 are prepared and the rate of decrease in iminochrome absorbance is followed at 475 nm. L-dopachrome is employed as a control. In addition, the reaction products can be followed using an HPLC, utilizing a mobile phase including 20 mM KH2PO4 buffer (pH 4.0) and 15% methanol with a flow rate of 1.2 ml/min. Fluorimetric detection is followed at 295/345 nm.
Alternatively, the tautomerization reaction utilizing phenylpyruvate or (p-hydroxyphenyl)pyruvate is carried out essentially as described by Johnson et al., Biochem. 38:16024-16033, 1999. In this version, ketonization of phenylpyruvate is monitored at 288 nm (ε=17300 M^−1 cm^−1) and the ketonization of (p-hydroxyphenyl)pyruvate is monitored at 300 nm (ε=21600 M^−1 cm^−1). The assay mixture contains 50 mM Na2HPO4 buffer (1 mL, pH 6.5) and an aliquot of a solution of MIF sufficiently dilute (0.5-1.0 μL of a 2.3 mg/mL solution, final concentration of 93-186 nM) to yield an initial liner rate. The assay is initiated by the addition of a small quantity (1-3.3 μL) of either phenylpyruvate or (p-hydroxyphenyl)pyruvate from stock solutions made up in ethanol. The crystalline forms of phenylpyruvate and (p-hydroxyphenyl)pyruvate exist exclusively as the enol isomers (Larsen et al., Acta Chem. Scand. B 28:92-96, 1974).

[2] = biological target: T2, MIF produced by THP-1 cells (Homo sapiens, UniProt P14174); assay: THP-1 Cell Assay (THP-1/MIF inhibition, ELISA with anti-MIF monoclonal antibody); assay type: cell-based
T2 construct: a test cell may express the MIF naturally (e.g., THP-1 cells); endogenous in cells; host or cells: THP-1 cells, LPS-stimulated; conditioned supernatant
T2 sequence (P14174 2-115 limits assumed): T1 sequence (P14174 2-115 limits assumed)
From the text: The assays may generally be divided into three categories, those being, assays which monitor export; those which monitor effector or small molecule binding, and those that monitor MIF activity. However, it should be noted that combinations of these assays are within the scope of the present application. […] In an alternative, these two assays (i.e., binding and activity assays) may be combined into a singular assay which detects binding of a test compound (e.g., the ability to displace monoclonal antibodies or inhibit their binding) while also affecting MIF activity. Such assays include combining an ELISA type assay (or similar binding assay) with a MIF tautomerism assay or similar functional assay. As one of ordinary skill in the art may readily recognize, the exact assay employed is irrelevant, provided it is able to detect the ability of the compound of interest to bind MIF.
Varying concentrations of inhibitor analogs are added to LPS stimulated THP-1 cells and allowed to incubate overnight. The following day the amount of immunoreactive MIF detected is evaluated by ELISA.
The high throughput screening assay for MIF inhibitors is performed in a 96-well format using MIF produced by THP-1 cells and is performed as follows. MIF assays are performed by ELISA as indicated above. […] The amount of MIF is calculated by interpolation from an MIF standard curve.

[3] = average of the determinations, read-out: Average IC 50 (Tautomerase Assay)
[4] = single determinations, range in brackets, read-out: Tautomerase Assay (Inhibitory Concentration (IC) of 50 μm)

melting point: 145 to 156 °C
Structure (SMILES): N#Cc1c(N2CCN(C(=O)c3cnccn3)CC2)c2ccccc2n(Cc2ccc(F)cc2)c1=O [Compound 95, 1-(4-Fluoro-benzyl)-2-oxo-4-[4-(pyrazine-2-carbonyl)-piperazin-1-yl]-1,2-dihydro-quinoline-3-carbonitrile]

melting point: 144 to 157 °C
Structure (SMILES): N#Cc1c(N2CCN(C(=O)c3ccc4ccccc4n3)CC2)c2ccccc2n(Cc2ccc(F)cc2)c1=O [Compound 96, 1-(4-Fluoro-benzyl)-2-oxo-4-[4-(quinoline-2-carbonyl)-piperazin-1-yl]-1,2-dihydro-quinoline-3-carbonitrile]

melting point: 130 to 137 °C
Structure (SMILES): Cc1cc(C(=O)N2CCN(c3c(C#N)c(=O)n(Cc4ccc(F)cc4)c4ccccc34)CC2)no1 [Compound 97, 1-(4-Fluoro-benzyl)-4-[4-(5-methyl-isoxazole-3-carbonyl)-piperazin-1-yl]-2-oxo-1,2-dihydro-quinoline-3-carbonitrile]

melting point: 123 to 135 °C
Structure (SMILES): N#Cc1c(N2CCN(C(=O)C3CCCO3)CC2)c2ccccc2n(Cc2ccc(F)cc2)c1=O (stereo not drawn) [Compound 98, 1-(4-Fluoro-benzyl)-2-oxo-4-[4-(tetrahydro-furan-2-carbonyl)-piperazin-1-yl]-1,2-dihydro-quinoline-3-carbonitrile]

melting point: 140 to 160 °C
Structure (SMILES): N#Cc1c(N2CCN(C(=O)c3ccc4c(c3)OCO4)CC2)c2ccccc2n(Cc2ccc(F)cc2)c1=O [Compound 99, 4-[4-(Benzo[1,3]dioxole-5-carbonyl)-piperazin-1-yl]-1-(4-fluoro-benzyl)-2-oxo-1,2-dihydro-quinoline-3-carbonitrile]

melting point: 181 to 185 °C
Structure (SMILES): N#Cc1c(N2CCN(C(=O)c3ccc(C(F)(F)F)cc3)CC2)c2ccccc2n(Cc2ccc(F)cc2)c1=O [Compound 100, 1-(4-Fluoro-benzyl)-2-oxo-4-[4-(4-trifluoromethyl-benzoyl)-piperazin-1-yl]-1,2-dihydro-quinoline-3-carbonitrile]

melting point: 176 to 183 °C
Structure (SMILES): N#Cc1c(N2CCN(C(=O)c3c[nH]cn3)CC2)c2ccccc2n(Cc2ccc(F)cc2)c1=O [Compound 101, 1-(4-Fluoro-benzyl)-4-[4-(1H-imidazole-4-carbonyl)-piperazin-1-yl]-2-oxo-1,2-dihydro-quinoline-3-carbonitrile]

melting point: 133 to 140 °C
Structure (SMILES): N#Cc1c(N2CCN(C(=O)C3CCCS3)CC2)c2ccccc2n(Cc2ccc(F)cc2)c1=O (stereo not drawn) [Compound 102, 1-(4-Fluoro-benzyl)-2-oxo-4-[4-(tetrahydro-thiophene-2-carbonyl)-piperazin-1-yl]-1,2-dihydro-quinoline-3-carbonitrile]

IC50 [1, 3]: 320 nM | MIF inhibitory activity, comparison of Compound 200 and Compound 203 [1]: satisfactory MIF inhibitory activity | in vitro tautomerase inhibitory activity [1]: exhibits MIF inhibitory activity | IC50 [1, 4]: 300 nM and 340 nM | IC50 ([2]; average of the determinations, read-out: Average IC 50 (THP-1/MIF Inhibition)): 150 nM | MIF inhibitory activity in the THP-1 Cell Assay ([2]; several different concentrations, FIG. 1): exhibits MIF inhibitory activity
Structure (SMILES): Cn1c(=O)c(C#N)c(N2CCN(C(=O)c3cccs3)CC2)c2ccccc21 [Compound 200]

IC50 [1, 3]: 98 nM | MIF inhibitory activity, comparison of Compound 200 and Compound 203 [1]: satisfactory MIF inhibitory activity | in vitro tautomerase inhibitory activity [1]: exhibits MIF inhibitory activity | IC50 [1, 4]: 98 nM
Structure (SMILES): N#Cc1c(N2CCN(C(=O)c3cccs3)CC2)c2ccccc2n(Cc2ccc(F)cc2)c1=O [Compound 203]
